Patent US20120121691A1, “Method for Increasing the Production of a Specific ACYL-Chain Dihydroceramide(s) for Improving the Effectiveness of Cancer Treatments” (priority 2010, published 2012)

Assays:
MOLT-4 ALL cells = assay: DIMSCAN cytotoxicity assay, MOLT-4; assay type: cell-based, human; conditions: MOLT-4, sphinganine 1 μM, GT-11 0.5 μM, 48 hours
Text: (§1) Cell culture. The pre-T acute lymphoblastic leukemia cell lines MOLT-4 and CCRF-CEM, small cell lung cancer cell line NCI-H146, non-small cell lung cancer cell line NCI-H1792, colon cancer cell lines LoVo and HT-29, and breast cancer cell line MCF-7, were purchased from American Type Culture Collection, Manassas, Va., and grown at 20%/5% and 5%/5%, respectively. COG-LL-317 and COG-LL-332 pre-T acute lymphoblastic leukemia cell lines were obtained from the TTUHSC Cancer Center Cell Repository and grown at 5%/5%. Cell line identities were verified by short tandem repeat analysis and mycoplasma testing was performed. Cell lines were maintained in RPMI-1640 medium supplemented with 10% fetal bovine serum (FBS, Invitrogen) in humidified, 37° C. incubators. For all experiments, ALL cell lines were seeded at […] in RPMI-1640 medium supplemented with 15% fetal bovine serum. Solid tumor cell lines were plated at 5×cells/mL in RPMI-1640 medium supplemented with 10% fetal bovine serum.
(§2) Cytotoxicity Assay. Cytoxicity is determined using the DIMSCAN assay system (R. Proffitt et al., Cytometry 24, 204-213 (1996); T. Frgala et al., Proc. AACR, 36, 303 (1995). The system employs digital imaging microscopy to quantify viable cells, which selectively accumulate fluorescein diacetate to become brightly fluorescent. The system is capable of measuring cytotoxicity over a 4-5 log dynamic range by quenching the residual fluorescence of dead and dying cells with eosin Y and quantifying the total fluorescence of viable cells using digital thresholding. Measured fluorescence is directly proportionate to the number of viable cells. A comparison of the total fluorescence of a drug-treated cell population to the fluorescence of a similar number of untreated cells yields a survival fraction. […]
(§3) The addition of C22:0-fatty acid, but not C18:0 or C22:1 fatty acids, increased cytotoxicity (FIGS. 7A-7F). […] Cytotoxicity was measured using DIMSCAN, and data was normalized to control and plotted as survival fraction (y-axis). […]

COG-LL-332 = assay: DIMSCAN cytotoxicity assay, COG-LL-332; assay type: cell-based; conditions: COG-LL-332, sphinganine 1 μM, GT-11 0.5 μM, 48 hours
Text: as §1, §2, §3

[1] = tested on: intracellular sphingolipids, COG-LL-317; assay: LC/MS/MS analysis of intracellular sphingolipids, COG-LL-317; assay type: cell-based, human; conditions: for increase in corresponding dihydroceramide over sphinganine+GT-11 alone: COG-LL-317, fatty acid with sphinganine+GT-11, six hours, P<0.05
Method: LC/MS/MS analysis of intracellular sphingolipids. Sphingolipids were separated using an Agilent 1200 HPLC (LC) and determined by ESI/MS/MS performed on a AB SCIEX 4000 QTRAP Hybrid Triple Quadrupole/Linear Ion Trap mass spectrometer (MS), operating in a multiple reaction monitoring positive ionization mode as described previously with moderate modifications (25). Briefly, 50 μL of a solution (1 μM) of internal sphingolipid standards (including -sphingosine, -sphinganine, -sphingosine-1-phosphate, and -ceramide) was added to each cell pellet sample. Lipids of each sample were extracted twice with 2 mL of the ethyl acetate/isopropyl alcohol/water (60:28:12; v:v) solvent system. Supernatants were transferred to glass tubes (Kimble Chase) and evaporated under air (10 PSI) at 40° C. After reconstitution in methanol (4 mL), 1 ml of each sample was separated for the determination of lipid phosphate. Remaining sample (3 mL) was dried and used for sphingolipid quantification. For ESI/MS/MS, the dried lipid sample was dissolved in mobile phase A. Samples were injected (10 μL) and separated on a Spectra C8SR, 150×3.0 mm, 3-μm particle size column using gradient-elution (mobile phase A/B, prepared as previously described).
Data acquisition, peak integration and analyte quantitation were performed using ABI/SCIEX Analyst 1.4.2 Software. Sphingolipid data were normalized to lipid phosphate as previously described (26). Briefly, samples were dried under air (10 PSI) and lipids were extracted using the method of Bligh and Dyer (27). Of importance for phosphate assay, only Kimble Chase disposable borosilicate tubes were used for minimal sample contamination. Organic phase was transferred to glass tubes and a known volume was separated to a new tube and dried at 80° C. Phosphate standards and dried samples were then heated with ashing buffer (water:10 N:70% [40:9:1]) at 160° C. overnight. Samples were then incubated with ammonium molybdate and ascorbic acid as previously described, and absorbance ([…]) was read using a SpectraMax.
Cells were treated for 48 hours with Sa (0-4 μM)+/−GT-11 (0.5 μM) with or without C18:0-, C22:0- or C22:1-fatty acids. Cytotoxicity was measured using DIMSCAN, and data was normalized to control and plotted as survival fraction (y-axis). Gray and white symbols represent long and very long chain fatty acids, respectively. Gray lines encompass data used for sphingolipid correlation analysis with cytotoxicity. Datum point, mean; error bar, SEM. […]
Cytotoxicity was measured using DIMSCAN, and data was normalized to control and plotted as survival fraction (y-axis).

SMILES	effect of fatty acid co-treatment on cytotoxicity of sphinganine with GT-11 (MOLT-4 ALL cells)	effect of fatty acid co-treatment on cytotoxicity of sphinganine with GT-11 (COG-LL-332)	increase in corresponding dihydroceramide over sphinganine+GT-11 alone [1]	increase of C22:0-dihydroceramide compared to 4-HPR alone ([1]; COG-LL-317, fatty acid with 4-HPR 1.1 μM, six hours, P<0.001)	increase of C22:0-dihydroceramide over sphinganine+GT-11 alone ([1]; COG-LL-317, fatty acid with sphinganine 1 μM plus GT-11 0.5 μM, six hours, P<0.003)
CCCCCCCC/C=C\CCCCCCCCCCCC(=O)O [C22:1-fatty acid]	not	not	significant increases	–	–
CCCCCCCCCCCCCCCCCCCCCC(=O)O [C22:0-fatty acid]	increased	increased	significant increases	11 fold	13 fold
